Measured values published in patent US6358885B1, “Substituted phenylheterocyclic herbicides” (Mississippi State University, priority 1992, dated 2002).

Columns and labels:
Assay in all cases: Test B preemergence/postemergence greenhouse plant response rating 0 to 10
cotton = type: in vivo, Gossypium hirsutum; conditions: for Plant response rating, Cotton: 0 to 10 scale
Procedure, shortened: (§1)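 Planted seeds are treated preemergence with compound dissolved in a non-phytotoxic solvent, while postemergence applications go onto plants of two to eighteen cm. Plants stay in the greenhouse twelve to sixteen days and are then rated visually relative to controls.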

wheat = type: in vivo, Triticum aestivum; conditions: for Plant response rating, Wheat: 0 to 10 scale; for Plant response rating (0 to 10 scale), Wheat: Rate 100 g/ha
Procedure, shortened: as §1

sorghum = type: in vivo, Sorghum bicolor; conditions: for Plant response rating, Sorghum: 0 to 10 scale; for Plant response rating (0 to 10 scale), Sorghum: Rate 100 g/ha
Procedure, shortened: as §1

cheatgrass = type: in vivo, Bromus secalinus; conditions: for Plant response rating, Cheatgrass: 0 to 10 scale
Procedure, shortened: as §1

blackgrass = type: in vivo, Alopecurus myosuroides; conditions: for Plant response rating, Blackgrass: 0 to 10 scale
Procedure, shortened: as §1

barley = type: in vivo, Hordeum vulgare; conditions: for Plant response rating, Barley: 0 to 10 scale
Procedure, shortened: as §1

bedstraw = type: in vivo, Galium aparine; conditions: for Plant response rating, Bedstraw: 0 to 10 scale
Procedure, shortened: as §1

rice = type: in vivo, Oryza sativa; conditions: for Plant response rating, Rice: 0 to 10 scale; for Plant response rating (0 to 10 scale), Rice: Rate 100 g/ha
Procedure, shortened: as §1

rape = type: in vivo, Brassica napus; conditions: for Plant response rating, Rape: 0 to 10 scale; for Plant response rating (0 to 10 scale), Rape: Rate 100 g/ha
Procedure, shortened: as §1

CC(C)Oc1cc(-c2nn3c(c2Cl)CCCC3)c(F)cc1Cl [Compound 21]
8: Plant response rating, Wheat (wheat; POSTEMERGENCE, Rate 200 g/ha) | Plant response rating, Cheatgrass (cheatgrass; POSTEMERGENCE, Rate 200 g/ha) | Plant response rating, Rape (rape; Rate 200 g/ha, PREEMERGENCE)
2: Plant response rating, Cotton (cotton; PREEMERGENCE, Rate 50 g/ha) | Plant response rating, Wheat (wheat; Rate 200 g/ha, PREEMERGENCE) | Plant response rating, Sorghum (sorghum; Rate 200 g/ha, PREEMERGENCE) | Plant response rating, Barley (barley; Rate 200 g/ha, PREEMERGENCE) | Plant response rating, Bedstraw (bedstraw; PREEMERGENCE, Rate 50 g/ha) | Plant response rating, Rice (rice; Rate 200 g/ha, PREEMERGENCE)
4: Plant response rating, Cheatgrass (cheatgrass; PREEMERGENCE, Rate 50 g/ha) | Plant response rating, Barley (barley; POSTEMERGENCE, Rate 200 g/ha)
5: Plant response rating, Sorghum (sorghum; POSTEMERGENCE, Rate 50 g/ha) | Plant response rating (0 to 10 scale), Cheatgrass (cheatgrass; POSTEMERGENCE, Rate 50 g/ha) | Plant response rating, Blackgrass (blackgrass; POSTEMERGENCE, Rate 200 g/ha) | Plant response rating, Rice (rice; POSTEMERGENCE, Rate 50 g/ha)
0: Plant response rating, Sorghum (sorghum; PREEMERGENCE, Rate 50 g/ha) | Plant response rating, Barley (barley; PREEMERGENCE, Rate 50 g/ha) | Plant response rating, Rice (rice; PREEMERGENCE, Rate 50 g/ha)
6: Plant response rating, Sorghum (sorghum; POSTEMERGENCE, Rate 200 g/ha) | Plant response rating, Cheatgrass (cheatgrass; Rate 200 g/ha, PREEMERGENCE) | Plant response rating, Blackgrass (blackgrass; PREEMERGENCE, Rate 50 g/ha) | Plant response rating (0 to 10 scale), Barley (barley; POSTEMERGENCE, Rate 50 g/ha) | Plant response rating (0 to 10 scale), Bedstraw (bedstraw; POSTEMERGENCE, Rate 50 g/ha) | Plant response rating, Rice (rice; POSTEMERGENCE, Rate 200 g/ha) | Plant response rating, Rape (rape; POSTEMERGENCE, Rate 50 g/ha)
9: Plant response rating, Bedstraw (bedstraw; POSTEMERGENCE, Rate 200 g/ha) | Plant response rating, Bedstraw (bedstraw; Rate 200 g/ha, PREEMERGENCE)
10: Plant response rating (0 to 10 scale), Cotton (cotton; POSTEMERGENCE, Rate 50 g/ha) | Plant response rating, Cotton (cotton; POSTEMERGENCE, Rate 200 g/ha) | Plant response rating, Rape (rape; POSTEMERGENCE, Rate 200 g/ha)
3: Plant response rating, Wheat (wheat; POSTEMERGENCE, Rate 50 g/ha) | Plant response rating, Wheat (wheat; PREEMERGENCE, Rate 50 g/ha) | Plant response rating (0 to 10 scale), Blackgrass (blackgrass; POSTEMERGENCE, Rate 50 g/ha) | Plant response rating, Rape (rape; PREEMERGENCE, Rate 50 g/ha)
7: Plant response rating, Cotton (cotton; Rate 200 g/ha, PREEMERGENCE) | Plant response rating, Blackgrass (blackgrass; Rate 200 g/ha, PREEMERGENCE)

Clc1ccc(-c2nc3n(c2Br)CCCC3)c(Cl)c1 [Compound 2]
4: Plant response rating, Sorghum (sorghum; POSTEMERGENCE, Rate 50 g/ha) | Plant response rating (0 to 10 scale), Sorghum (sorghum; POSTEMERGENCE) | Plant response rating, Cheatgrass (cheatgrass; POSTEMERGENCE, Rate 400 g/ha) | Plant response rating, Bedstraw (bedstraw; POSTEMERGENCE, Rate 200 g/ha) | Plant response rating (0 to 10 scale), Rice (rice; POSTEMERGENCE) | Plant response rating, Rice (rice; POSTEMERGENCE, Rate 200 g/ha) | Plant response rating, Rice (rice; POSTEMERGENCE, Rate 400 g/ha)
9: Plant response rating (0 to 10 scale), Cotton (cotton; POSTEMERGENCE, Rate 50 g/ha) | Plant response rating, Cotton (cotton; POSTEMERGENCE, Rate 200 g/ha) | Plant response rating, Rape (rape; POSTEMERGENCE, Rate 200 g/ha) | Plant response rating, Rape (rape; POSTEMERGENCE, Rate 400 g/ha)
0: Plant response rating, Cotton (cotton; PREEMERGENCE, Rate 50 g/ha) | Plant response rating (0 to 10 scale), Cotton (cotton; PREEMERGENCE, Rate 100 g/ha) | Plant response rating, Cotton (cotton; Rate 200 g/ha, PREEMERGENCE) | Plant response rating, Wheat (wheat; PREEMERGENCE, Rate 50 g/ha) | Plant response rating (0 to 10 scale), Wheat (wheat; PREEMERGENCE) | Plant response rating, Wheat (wheat; PREEMERGENCE, Rate 400 g/ha) | Plant response rating, Wheat (wheat; Rate 200 g/ha, PREEMERGENCE) | Plant response rating, Sorghum (sorghum; PREEMERGENCE, Rate 50 g/ha) | Plant response rating (0 to 10 scale), Sorghum (sorghum; PREEMERGENCE) | Plant response rating, Sorghum (sorghum; PREEMERGENCE, Rate 400 g/ha) | Plant response rating, Sorghum (sorghum; Rate 200 g/ha, PREEMERGENCE) | Plant response rating, Cheatgrass (cheatgrass; PREEMERGENCE, Rate 50 g/ha) | Plant response rating (0 to 10 scale), Cheatgrass (cheatgrass; PREEMERGENCE, Rate 100 g/ha) | Plant response rating, Cheatgrass (cheatgrass; PREEMERGENCE, Rate 400 g/ha) | Plant response rating, Cheatgrass (cheatgrass; Rate 200 g/ha, PREEMERGENCE) | Plant response rating, Blackgrass (blackgrass; PREEMERGENCE, Rate 50 g/ha) | Plant response rating (0 to 10 scale), Blackgrass (blackgrass; PREEMERGENCE, Rate 100 g/ha) | Plant response rating, Blackgrass (blackgrass; PREEMERGENCE, Rate 400 g/ha) | Plant response rating, Blackgrass (blackgrass; Rate 200 g/ha, PREEMERGENCE) | Plant response rating, Barley (barley; PREEMERGENCE, Rate 50 g/ha) | Plant response rating (0 to 10 scale), Barley (barley; PREEMERGENCE, Rate 100 g/ha) | Plant response rating, Barley (barley; PREEMERGENCE, Rate 400 g/ha) | Plant response rating, Barley (barley; Rate 200 g/ha, PREEMERGENCE) | Plant response rating, Bedstraw (bedstraw; PREEMERGENCE, Rate 50 g/ha) | Plant response rating (0 to 10 scale), Bedstraw (bedstraw; PREEMERGENCE, Rate 100 g/ha) | Plant response rating, Bedstraw (bedstraw; PREEMERGENCE, Rate 400 g/ha) | Plant response rating, Rice (rice; PREEMERGENCE, Rate 50 g/ha) | Plant response rating (0 to 10 scale), Rice (rice; PREEMERGENCE) | Plant response rating, Rice (rice; PREEMERGENCE, Rate 400 g/ha) | Plant response rating, Rice (rice; Rate 200 g/ha, PREEMERGENCE) | Plant response rating, Rape (rape; PREEMERGENCE, Rate 50 g/ha) | Plant response rating (0 to 10 scale), Rape (rape; PREEMERGENCE) | Plant response rating, Rape (rape; PREEMERGENCE, Rate 400 g/ha) | Plant response rating, Rape (rape; Rate 200 g/ha, PREEMERGENCE)
2: Plant response rating, Cotton (cotton; PREEMERGENCE, Rate 400 g/ha) | Plant response rating (0 to 10 scale), Wheat (wheat; POSTEMERGENCE) | Plant response rating, Wheat (wheat; POSTEMERGENCE, Rate 200 g/ha) | Plant response rating, Wheat (wheat; POSTEMERGENCE, Rate 400 g/ha) | Plant response rating (0 to 10 scale), Cheatgrass (cheatgrass; POSTEMERGENCE, Rate 50 g/ha) | Plant response rating (0 to 10 scale), Cheatgrass (cheatgrass; POSTEMERGENCE, Rate 100 g/ha) | Plant response rating, Blackgrass (blackgrass; POSTEMERGENCE, Rate 400 g/ha) | Plant response rating (0 to 10 scale), Barley (barley; POSTEMERGENCE, Rate 50 g/ha) | Plant response rating (0 to 10 scale), Barley (barley; POSTEMERGENCE, Rate 100 g/ha) | Plant response rating, Barley (barley; POSTEMERGENCE, Rate 400 g/ha)
5: Plant response rating, Sorghum (sorghum; POSTEMERGENCE, Rate 200 g/ha) | Plant response rating, Sorghum (sorghum; POSTEMERGENCE, Rate 400 g/ha) | Plant response rating, Rape (rape; POSTEMERGENCE, Rate 50 g/ha)
10: Plant response rating (0 to 10 scale), Cotton (cotton; POSTEMERGENCE, Rate 100 g/ha) | Plant response rating, Cotton (cotton; POSTEMERGENCE, Rate 400 g/ha)
3: Plant response rating, Cheatgrass (cheatgrass; POSTEMERGENCE, Rate 200 g/ha) | Plant response rating, Barley (barley; POSTEMERGENCE, Rate 200 g/ha) | Plant response rating (0 to 10 scale), Bedstraw (bedstraw; POSTEMERGENCE, Rate 50 g/ha) | Plant response rating (0 to 10 scale), Bedstraw (bedstraw; POSTEMERGENCE, Rate 100 g/ha) | Plant response rating, Bedstraw (bedstraw; POSTEMERGENCE, Rate 400 g/ha) | Plant response rating, Bedstraw (bedstraw; Rate 200 g/ha, PREEMERGENCE) | Plant response rating, Rice (rice; POSTEMERGENCE, Rate 50 g/ha) | Plant response rating (0 to 10 scale), Rape (rape; POSTEMERGENCE)
1: Plant response rating, Wheat (wheat; POSTEMERGENCE, Rate 50 g/ha) | Plant response rating (0 to 10 scale), Blackgrass (blackgrass; POSTEMERGENCE, Rate 50 g/ha) | Plant response rating (0 to 10 scale), Blackgrass (blackgrass; POSTEMERGENCE, Rate 100 g/ha) | Plant response rating, Blackgrass (blackgrass; POSTEMERGENCE, Rate 200 g/ha)
